Results from patent US20230406851A1, “IMIDAZOPYRIDINE COMPOUNDS AND USES THEREOF” (priority 2022, published 2023).

What was measured:
[1] = test system: rat FCA 96 hr paw model of inflammatory pain (heat hyperalgesia); assay: Heat hyperalgesia (Plantar Test) in rat FCA 96 hr paw model of inflammatory pain; format: in vivo; conditions: oral dosing 0.3-1-3-10-20 μmol/kg, 96 h after FCA
Experimental: (§1) One of the compounds of the present invention was evaluated in an in vivo model of inflammatory pain.
(§2) Male Sprague-Dawley rats (Charles River, St-Constant, Qc, CAN) weighing 200-225 g were utilized for the animal experiment studies. The animals were group-housed in polycarbonate, ventilated cages (filter top) in a controlled environment room (12-h light/dark cycle, 20.5-23.5° C., relative humidity: 40-70%) with food (14% Protein Rodent Maintenance Diet, Harlan Teklad, Madisson, WI, USA) and water ad libidum.
(§3) Inflammation was induced by injection of a single 40 μl Freund's complete adjuvant (FCA) intra-plantar injection into the rat's left hindpaw. All experiments were conducted 96 h after FCA administration. […]
Heat hyperalgesia (Plantar Test) was assessed using a Paw Thermal Stimulator to apply a controlled heat to the plantar surface of the affected paw. […] The heat source and timer were then turned on simultaneously; when the animal withdrew the hind paw the number of seconds was recorded. […]
(§4) Satellite animals were used to monitor the free plasma concentration of example 15 at the doses and time points used in the nociceptive tests. Free plasma EC50 values in behavioral studies were determined from 4-point concentration-response curves using non-linear regression and a sigmoidal variable slope logistic model (Prism 4.03, GraphPad Software Inc., USA).

[2] = test system: rat FCA 96 hr paw model of inflammatory pain (mechanical hyperalgesia); assay: Mechanical hyperalgesia (Ugo Basile analgesy meter) in rat FCA 96 hr paw model of inflammatory pain; format: in vivo; conditions: oral dosing 0.3-1-3-10-20 μmol/kg, 96 h after FCA
Experimental: as §1, §2, §3
Mechanical hyperalgesia was assessed using the Ugo Basile analgesy meter (Ugo Basile, Comerio, Italy). […] The pressure required to elicit paw withdrawal was determined. […] Paw withdrawal thresholds were calculated as the mean of the two values. […]
as §4

EC50 ([2]; free plasma concentration, read-out: potency (EC50 free plasma concentration) in reversing mechanical hyperalgesia): 87 nM
SMILES: CNC(=O)c1cc(F)c(-c2nc3cc(C)ccn3c2C[C@H]2CN(C(=O)OC)CCO2)c(F)c1 [Example 15, (S)-methyl-2-((2-(2,6-difluoro-4-(methylcarbamoyl)phenyl)-7-methylimidazo[1,2-a]pyridin-3-yl)methyl)morpholine-4-carboxylate]
reversal of heat hyperalgesia [1]: free plasma concentration dependent reversal
EC50 ([1]; free plasma concentration, read-out: potency (EC50 free plasma concentration) in reversing heat hyperalgesia): 18 nM
reversal of mechanical hyperalgesia [2]: free plasma concentration dependent reversal
